The values below come from patent US12378278B2, “Mimetics of heparin oligosaccharides” (Board of Trustees of Michigan State University, priority 2019, dated 2025).

Test [1] concerns the target FGF-2-heparin interaction (Homo sapiens, UniProt P09038). In words: Competition SPR on the FGF-2-heparin interaction. The format is binding. The note with it: FGF-2 50 nM pre-mixed with compound, biotinylated heparin on SA sensor chip. On the procedure:
In order to gain more insights into the structure-activity relationship between heparin and FGF-2, the competition assay was performed by the Linhardt group (FIG. 4). Biotinylated heparin was immobilized on the biosensor, and 27 pseudo-hexasaccharides (10 uM) was mixed with FGF-2 (50 nM) individually. […] For IC50 measurements, biotinylated heparin was immobilized on the SA sensor chip as described above, and FGF-2 (50 nM) was pre-mixed with different concentrations of pseudo-hexasaccharides. […] According to competition SPR results, successive fully sulfated disaccharide modules are required for potent competitive activity.

In the next test the target is FGF-2 (Homo sapiens, UniProt P09038). In words: Direct binding to immobilized FGF-2 by surface plasmon resonance (SPR). The settings on record: FGF-2 immobilized on CDH sensor chip. An excerpt:
FGF-2 was immobilized on CDH sensor chip surface through EDC/NHS coupling, and fully sulfated (50), O-sulfated (50z) and N-sulfated (50m) pseudo-hexasaccharides were selected as analytes. […] The SPR results correlated well with that of heparin hexasaccharides (36, 51, 52) (Chem. Eur. J. 2006, 12 (34), 8664-8686).
FGF-2 was immobilized on sensor chip by primary amine coupling reaction. The surface of a CDH sensor chip (ForteBio, Inc., Molecular Devices, USA) was activated using freshly mixed N-hydroxysuccimide (NHS; 0.05 M) and 1-(3-(dimethylamino)propyl)-ethylcarbodiimide (EDC; 0.2 M) (1/1, v/v) in water, followed by the injection of FGF-2 (50 ug/ml) in PBS buffer. The remaining active esters were quenched by ethanolamine (1.0 M). All measurements were performed using 0.01% Tween 20 PBS buffer. Aqueous NaCl (2.0 M) was employed for regeneration to achieve baseline status.
(In general: In SPR one partner is held on a chip, and binding of the other changes the refractive index at the surface.)

As a reminder, the pIC50 is the IC50 on a negative log10 scale, so that one unit is a factor of ten. A word on the pKd: it is the negative decadic logarithm of the Kd, by convention in mol/L.

pIC50, pKd: −log10 of the molar value.

Sequence of FGF-2-heparin interaction (P09038 143-288, species assumed): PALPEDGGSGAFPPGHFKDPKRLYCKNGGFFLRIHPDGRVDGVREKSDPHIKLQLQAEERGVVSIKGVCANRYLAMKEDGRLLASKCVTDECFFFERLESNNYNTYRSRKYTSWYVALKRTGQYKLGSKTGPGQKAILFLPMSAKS
Sequence of FGF-2 (P09038 143-288, species assumed): as above

As for `CC(=O)NCCOC1OC(C(=O)O)C(OC2OC(CO)C(OCCC(=O)NCCOC3OC(C(=O)O)C(OC4OC(COS(=O)(=O)O)C(OCCC(=O)NCCOC5OC(C(=O)O)C(OC6OC(COS(=O)(=O)O)C(OCCC(=O)O)C(O)C6NS(=O)(=O)O)C(O)C5OS(=O)(=O)O)C(O)C4NS(=O)(=O)O)C(O)C3OS(=O)(=O)O)C(O)C2NS(=O)(=O)O)C(O)C1O` (centres unmarked) [Compound 50a], the pIC50 in test [1] was 4.97. Turning to `CC(=O)NCCOC1OC(C(=O)O)C(OC2OC(COS(=O)(=O)O)C(OCCC(=O)NCCOC3OC(C(=O)O)C(OC4OC(COS(=O)(=O)O)C(OCCC(=O)NCCOC5OC(C(=O)O)C(OC6OC(COS(=O)(=O)O)C(OCCC(=O)O)C(O)C6NS(=O)(=O)O)C(O)C5OS(=O)(=O)O)C(O)C4NS(=O)(=O)O)C(O)C3OS(=O)(=O)O)C(O)C2NC(C)=O)C(O)C1OS(=O)(=O)O` (centres unmarked) [Compound 50b], the pIC50 in test [1] was 5.40. With `CC(=O)NCCOC1OC(C(=O)O)C(OC2OC(COS(=O)(=O)O)C(OCCC(=O)NCCOC3OC(C(=O)O)C(OC4OC(COS(=O)(=O)O)C(OCCC(=O)NCCOC5OC(C(=O)O)C(OC6OC(COS(=O)(=O)O)C(OCCC(=O)O)C(O)C6NC(C)=O)C(O)C5OS(=O)(=O)O)C(O)C4NS(=O)(=O)O)C(O)C3OS(=O)(=O)O)C(O)C2NS(=O)(=O)O)C(O)C1OS(=O)(=O)O` (centres unmarked) [Compound 50r], in test [1], the pIC50 is 5.46. Take `CC(=O)NCCOC1OC(C(=O)O)C(OC2OC(COS(=O)(=O)O)C(OCCC(=O)NCCOC3OC(C(=O)O)C(OC4OC(COS(=O)(=O)O)C(OCCC(=O)NCCOC5OC(C(=O)O)C(OC6OC(COS(=O)(=O)O)C(OCCC(=O)O)C(O)C6NC(C)=O)C(O)C5OS(=O)(=O)O)C(O)C4NC(C)=O)C(O)C3OS(=O)(=O)O)C(O)C2NC(C)=O)C(O)C1OS(=O)(=O)O` (centres unmarked) [Compound 50z]: the pKd on FGF-2 (compound as analyte) was 6.03. “N-Acetamidoethyl O-(4-O-carboxyethyl-2-deoxy-2-sulfoamino-1-thio-α-D-glucopyranoside)-(1→4)-O-(6-O-carboxyl-1-thio-α-L-idopyranosiduronate)-(1→4)-O-(2-deoxy-2-sulfoamino-1-thio-α-D-glucopyranoside)-(1→4)-O-(6-O-carboxyl-1-thio-α-L-idopyranosiduronate)-(1→4)-O-(2-deoxy-2-sulfoamino-1-thio-α-D-glucopyranoside)-(1→4)-O-(6-O-carboxyl-1-thio-α-L-idopyranosiduronate) [Compound 50m]”: the “binding to FGF-2 (in words)” value on FGF-2 is “weak signal”.
